Assay results: article PMC4291083, “Ex Vivo Characterization of a Novel Iodine-123-Labelled Aminomethylchroman as a Potential Agonist Ligand for SPECT Imaging of Dopamine D2/3 Receptors” (International Journal of Molecular Imaging, 2014)

Test system: D2/3 receptors
Assay: Blocking studies using ex vivo storage phosphor imaging (haloperidol)
Format: in vivo
Conditions: 2 h p.i., rats
Method: To determine whether [^123I]-1 binds selectively to D2/3 receptors in vivo, in the following experiments 5 rats received an i.v. injection of the dopamine receptor blocker haloperidol (1 mg/kg) 5 min prior to the injection with [^123I]-1 (approximately 37 MBq). A control group (n = 5) was injected with 0.4 mL buffer 5 min prior to the injection with the radiopharmaceutical. Two hours after the injection of [^123I]-1 (this time point was based on the results of the classic biodistribution study; see Results) the rats were sacrificed by bleeding through heart puncture under O2/CO2 anaesthesia. The brains were quickly removed and immediately frozen on dry ice. Then the frozen brain was sliced horizontally in 50 μm thick slices. Storage phosphor imaging was done as previously described. In contrast to previous studies, we used a Typhoon FLA 7000 Phosphor imager (GE Healthcare Life Sciences, Uppsala, Sweden) and Hypercassette Amersham Biosciences imaging plates which were scanned at 25 μm pixel size. In this blocking experiment, storage phosphor imaging was used because this offers the opportunity to look into binding in ventral as well as dorsal parts of the striatum. In ventral parts, the expression of dopamine D3 receptors is higher than in more dorsal parts.

uptake in white matter: high uptake in white matter
SMILES: Oc1ccc2c(c1)O[C@@H](CNCc1ccc([123I])cc1)CC2 [[^123I]-1]
specific striatal binding (haloperidol 1 mg/kg i.v. 5 min prior vs control): no specific striatal binding was observed
specific binding in other brain areas including the globus pallidus: no specific binding
